pEC50: −log10 of the molar value. Bounds are passed on as bounds.

Assay [1] concerns the target cAMP-dependent kinase type I (FICRhR) (Bos taurus, UniProt P00514). As to the kind of experiment: biochemical. An excerpt: When PKA is doubly labeled with fluorescein on its catalytic subunits and rhodamine on its regulatory subunits to produce FICRhR, fluorescence energy transfer from the fluorescein to rhodamine occurs in the holoenzyme complex but is disrupted upon activation and dissociation of the subunits. The change in the ratio of fluorescein to rhodamine emissions parallels the increase in kinase activity and can be nondestructively imaged in single cells. REF-52 fibroblasts were microinjected with FICRhR and emission ratio images recorded at room temperature as previously described (27).

Assay [2] concerns angelfish (Pterophyllum scalare) melanophores. Nature of the assay: Pigment dispersion in angelfish melanophores on isolated scales (FIG. 3). The class given is cell-based. The following applies: for reversibility of dispersion (in words): removal of extracellular compound and epinephrine. As to the method: Melanophores permit a visual single-cell assay for the ability of cAMP analogs to enter cells and mimic cAMP actions. The melanophores were isolated on angelfish scales and the epidermis was stripped off. […] Dispersion was just detectable at 1 μM and half-maximal near 10 μM (FIG. 3A). […] The preceding examples are summarized in (64).

Assay [3] addresses cAMP-dependent protein kinase (PKA) (Bos taurus, UniProt P00514). Nature of the assay: cell-based. The class given is cell-based.
The test system of assay [4] is T84 cells. As to the kind of experiment: cells. The class given is cell-based. The following applies: for pEC50: Homo sapiens, T84, 0.2 h, ISC 12 min after addition, read-out: EC50 for Cl- secretion. An excerpt:
A convenient test system is the intestinal cell line T84, in which chloride secretion can be continuously monitored by mounting confluent monolayers of cells in Ussing chambers (42).

Assay [5] concerns 1321N1 astrocytoma cells. Nature of the assay: Cytosolic free Ca2+ imaging (fura-2) in 1321N1 astrocytoma cells (FIGS. 7-9). The class given is cell-based. How it is done: Biological tests on 1321N1 astrocytoma cells were performed similarly to the tests on REF-52 cells (71). The concentration of Cytosolic free Ca^2+ (ordinate, in units of […]) in fura-2-loaded 1321N1 astrocytoma cells is shown as a function of time (abscissa, in units of seconds). At the dotted vertical line labeled 1, 20 μM inositol-1,4,5-triphosphate propionyloxymethyl ester (5a, R=Et, R'=H) was added. […] Subsequently the cells could respond to carbachol (200 μM, delivered at the dotted vertical line labeled 2), a drug that stimulates the endogenous generation of inositol-1,4,5-triphosphate. However, the response to carbachol is depressed by the prior treatment with the inositol-1,4,5-triphosphate propionyloxymethyl ester. Likewise the Ca^2+ response to thapsigargin (100 nM, delivered at the dotted vertical line labeled 3), another drug that releases stored Ca^2+, is depressed.
A test similar to the one shown in FIG. 7 was conducted except that the medium lacked extracellular Ca^2+ and a dose of 60 μM inositol-1,4,5-triphosphate propionyloxymethyl ester was added at the dotted vertical line labeled 1. […] Because no extracellular Ca^2+ was present, this response must have represented release from intracellular Ca^2+ stores. […] The much greater degree of inhibition of the carbachol response compared to the previous example (FIG. 7) is due to the higher dose of the inositol-1,4,5-triphosphate propionyloxymethyl ester and the absence of extracellular Ca^2+, which reduces refilling of Ca^2+ stores.
In a further example, the same test as set forth above was conducted with astrocytoma cells, except that 2 μM inositol-1,4,5-triphosphate butyryloxymethyl ester (5a, R=Pr, R'=H) was used instead of the propionyloxymethyl ester.

In assay [6] the test system is REF-52 fibroblasts. Nature of the assay: Cytosolic free Ca2+ imaging (fura-2) in single REF-52 fibroblasts (FIG. 6). The assay is classed as cell-based. As to the method:
The best-established biological effect of IP3 is to release Ca^2+ from internal stores (26), so IP3 /PM (5a, R=Et, R'=H) was tested by imaging cytosolic free Ca^2+ levels in single REF-52 fibroblasts using standard methodology (58). Cells were loaded with the Ca^2+ -indicator fura-2 and viewed by fluorescence excitation ratioing. IP3 /PM (40 μM) was applied extracellularly while monitoring cytosolic Ca^2+ concentrations.

The mark [7] stands for this setting: 20 μM, extracellular Ca2+ present, FIG. 7.
[8] abbreviates: 60 μM, no extracellular Ca2+, FIG. 8.

Sequence of cAMP-dependent kinase type I (FICRhR) (P00514 whole entry): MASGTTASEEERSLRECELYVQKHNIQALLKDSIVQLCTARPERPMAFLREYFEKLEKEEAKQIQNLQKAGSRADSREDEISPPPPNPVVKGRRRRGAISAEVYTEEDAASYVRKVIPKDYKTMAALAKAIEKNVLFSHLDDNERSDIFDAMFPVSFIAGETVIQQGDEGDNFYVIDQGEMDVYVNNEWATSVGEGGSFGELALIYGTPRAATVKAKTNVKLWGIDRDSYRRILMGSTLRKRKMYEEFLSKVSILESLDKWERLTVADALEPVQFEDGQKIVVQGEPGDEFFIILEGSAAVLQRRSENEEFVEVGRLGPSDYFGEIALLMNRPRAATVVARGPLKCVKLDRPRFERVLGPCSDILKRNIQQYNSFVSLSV

`CCCC(=O)Nc1ncnc2c1ncn2[C@@H]1O[C@@H]2COP(=O)(OCOC(C)=O)O[C@H]2[C@H]1OC(=O)CCC` (some centres unmarked) [Bt2 cAMP/AM, N^6,O^2 '-Dibutyryl Adenosine 3',5'-cyclic Monophosphate Acetoxymethyl Ester]: in assay [1] (1 μM), the “separation of the FICRhR subunits in vitro (in words)” value is “no separation of the subunits”. Further, in assay [1] (10 μM (printed)), the activation at 10 µM was 0%. In assay [2] (100 μM, extracellular), the “pigment dispersion (in words)” value is on record as “essentially complete dispersal”. Moreover, the entries for the “reversibility of dispersion (in words)” value in assay [2] (100 μM) and in assay [2] (1 mM) were “easily reversed” and “could not be readily reversed”, respectively. In addition, the “onset of dispersion relative to 100 μM (in words)” value in assay [2] (1 mM) is “slightly faster onset of action”. Further, in assay [2] (Pterophyllum scalare, Melanophore, read-out: concentration at which dispersion was just detectable), the minimal effective concentration was found to be 1 µM. For the same compound, the pEC50 in assay [2] (Pterophyllum scalare, Melanophore, read-out: concentration for half-maximal dispersion) is around 5.00; in assay [4] it was 5.70. Also, in assay [2] (melanophore dispersion), the “increase in potency by AM ester group (vs Bt2 cAMP)” value was “more than 1000”. The “time to maximal change in fluorescence ratio” value in assay [3] (10 μM (highest dose), added extracellularly, room temperature) was at most 15 min. Besides, the activation at 1 µM in assay [3] (REF52, 1 μM (intermediate dose), read-out: plateau of fluorescence ratio change (% of the maximal change)) is above 50%. Further, the “onset of separation of regulatory and catalytic subunit of FICRhR after addition” value in assay [3] (extracellular addition) was “roughly 2 min”. The “time to maximum ISC” value in assay [4] (3 μM, serosal bathing solution) came to 20 min. The “increase in potency by acetoxymethyl group (vs Bt2 cAMP)” value in assay [4] (Cl- secretion) worked out at 200 fold. Besides, the “kinetics of activation, ester vs Bt2 cAMP (in words)” value in assay [4] (T84 cells) is recorded as “essentially indistinguishable kinetics of activation”. For the same compound, the “ISC response at other concentrations (in words)” value in assay [4] (relative to 3 μM) is listed as “Higher concentrations of the derivative caused faster but not significantly greater responses, whereas lower concentrations reached lower maximum ISC values”.

On to `CCCC(=O)Nc1ncnc2c1ncn2[C@@H]1O[C@@H]2COP(=O)(O)O[C@H]2[C@H]1OC(=O)CCC` [Bt2 cAMP, N^6,O^2 '-dibutyryl cAMP, reference compound], for which the activation at 10 µM came to 16% in assay [1] (10 μM (printed)) and 61% in assay [1] (second Bt2 cAMP column, 10 μM printed). Moreover, in assay [1] (in vitro, FICRhR), the “potency relative to cAMP” value is reported as “roughly 1/100”. The “pigment dispersion (in words)” value in assay [2] (1 mM) is listed as “unable to cause any detectable dispersion”. Besides, the “delay and time course of PKA activation relative to Bt2 cAMP/AM (in words)” value in assay [3] (1 mM, FIG. 1 Graph B) was “Much the same delay and overall time course”. Moreover, the “concentration required for PKA activation” value in assay [3] (extracellular application) came to 1 mM. Also, the pEC50 in assay [4] is 3.40.

For `Nc1ncnc2c1nc(Br)n2[C@@H]1O[C@@H]2COP(=O)(O)O[C@H]2[C@H]1O` [Compound 8-Br-cAMP, 8-bromo-cAMP, reference compound], the pEC50 in assay [4] was 2.82.

“D-myo-inositol-1,4,5-triphosphate butyryloxymethyl ester [IP3 /BM]”: in assay [5] (2 μM, FIG. 9), the “potency relative to propionyloxymethyl ester (in words)” value is reported as “somewhat more potent”; the “rate of effects relative to propionyloxymethyl ester (in words)” value was “slower to appear and decay”.

In the case of `Nc1ncnc2c1nc(Sc1ccc(Cl)cc1)n2[C@@H]1O[C@@H]2COP(=O)(O)O[C@H]2[C@H]1O` [Compound 8-pCPT-cAMP, 8-para-chlorophenylthio (cCPT) cAMP, reference compound], the pEC50 in assay [4] is 4.00.

In the case of `CCC(=O)OCOP(=O)(OCOC(=O)CC)O[C@@H]1[C@H](O)[C@H](O)[C@@H](OP(=O)(OCOC(=O)CC)OCOC(=O)CC)[C@H](OP(=O)(OCOC(=O)CC)OCOC(=O)CC)[C@H]1O` [IP3 /PM, D-myo-inositol-1,4,5-triphosphate propionyloxymethyl ester], in assay [5] (setting [7]), the “Ca2+ response to thapsigargin (100 nM) after treatment (in words)” value was “depressed”, the “delay of cytosolic Ca2+ elevation” value is recorded as “about 100 second”, the “elevation of cytosolic Ca2+ (in words)” value is recorded as “sizable elevation of cytosolic Ca^2+” and the “response to carbachol (200 μM) after treatment (in words)” value is given as “depressed”. Moreover, in assay [5] (setting [8]), the “delay of cytosolic Ca2+ elevation” value is around 50 s, the “elevation of cytosolic Ca2+ (in words)” value is given as “sizable elevation of cytosolic Ca^2+” and the “response to carbachol (200 μM) after treatment (in words)” value is reported as “greatly depressed”. Further, the “Ca2+ release from internal stores (in words)” value in assay [5] (summary, intact REF-52 fibroblasts and astrocytoma cells) is on record as “released Ca^2+ from internal stores”. In addition, in assay [6] (40 μM, extracellular), the “cytosolic Ca2+ concentration after addition (in words)” value is “increased rapidly”. In addition, the “effect of subsequent vasopressin (in words)” value in assay [6] (after 40 μM IP3/PM) was “much less effect than normal”.

The record behind these values is patent US5834436A, “Membrane-permeant second messengers” (priority 1995, dated 1998).
